“Also recorded” adds a separate entry of the source.
Legend:
Assay type in all cases: cell-based, human
α9-nAChR mRNA = α9-nAChR mRNA by RT-PCR / real-time PCR in MCF-7 cells; conditions: 24 h
Protocol: Total RNA was isolated from human cell lines using TRIzol (Invitrogen, Carlsbad, Calif., USA) according to the manufacturer's protocol. The α9-nAChR subunit-specific primers were synthesized by MB Mission BioTech (Taipei, Taiwan) as described in the previous reports (Chen, C. S., Lee, C. H., Hsieh, C. D., Ho, C. T. et al., Breast Cancer Res. Treat. 2010; Shih, Y. L., Liu, H. C., Chen, C. S., Hsu, C. H. et al., J. Agric. Food Chem. 2010, 58, 235-241). The PCR amplicons were analyzed on 1.2% agarose gels (Amresco, Solon, Ohio, USA) stained with ethidium bromide. The α9-nAChR mRNA intensity was measured and normalized to β-glucuronidase expression. Pictures of the bands were taken using an INFINITY-α digital imaging system (Vilber Lourmat, France), and band intensities were determined using PhotoCapt Version 11.01 software.

MCF-7 cells [1] = test: Cell proliferation (MTT assay) in MCF-7 cells
Protocol: (§1) Human mammary gland epithelial adenocarcinomas (MCF7, MDA-MB-231, AU-565, MDA-MB-453, and BT-483) and normal human mammary gland epithelial fibrocystic cell lines (MCF-10A and HBL-100) were purchased from ATCC (American Type Culture Collection, Manassas, Va., USA). MCF-7, MDA-MB-231, and MDA-MB-453 cells were maintained in DMEM, whereas BT-483 cells were maintained in RPMI-1640. Cell growth, proliferation, and viability were determined by the 3-(4,5-dimethylthiazol-2-yl)-2,5-diphenyltetrazolium (MTT) assay. The formazan product was measured by absorbance at 540 nm.

AP-1 = test: ChIP assay of AP-1 binding to the α9-nAChR promoter in MCF-7 cells; conditions: EGCG 10 μM 24 h pretreatment, Nic 10 μM
Protocol: Chromatin immunoprecipitation (ChIP) assays of cultured cells were performed as described previously (Chen, C. S., Lee, C. H., Hsieh, C. D., Ho, C. T. et al., Breast Cancer Res. Treat. 2010; Shih, Y. L., Liu, H. C., Chen, C. S., Hsu, C. H. et al., J. Agric. Food Chem. 2010, 58, 235-241). Briefly, after various regimens of Nic treatment, the cells were fixed with a final concentration of 1% formaldehyde directly added to the cell culture medium at 25° C. for 15 min. The crosslinking reaction was terminated with 0.125 M glycine for 5 min, and the cells were collected into a new Eppendorf tube. The cell lysate was sonicated three times with 10 s bursts to yield input DNA enriched for fragments around 1000 bp in size. A c-Jun (AP-1) antibody (Santa Cruz Biotechnology) was used for the immunoprecipitation reactions. Primers, which detect the a9-nAChR promoter regions, amplified a region from −960 to −1 for 32 cycles (forward: 5′-ATGCAATG CAAGCCTGAGCT-3′ (SEQ ID NO:2) and reverse: 5′-TATA-[…]-3′ (SEQ ID NO:3)). The PCR products were then separated and analyzed by agarose gel electrophoresis.

p53 = test: ChIP assay of p53 binding to the α9-nAChR promoter in MCF-7 cells; conditions: EGCG 10 μM pretreatment, Nic 10 μM
α9-nAChR protein = α9-nAChR protein levels by immunoblotting in MCF-7 cells; conditions: MCF-7
Protocol: as §1
(§2) To prepare protein samples, cells were washed once with ice-cold PBS and lysed on ice in cell lysis buffer (50 mM Tris-HCl, pH 8.0, 120 mM […], 0.5% Nonidet P-40, 100 mM sodium fluoride, and 200 μM sodium orthovanadate) containing protease inhibitors as described previously (Shih, Y. L., Liu, H. C., Chen, C. S., Hsu, C. H. et al., J. Agric. Food Chem. 2010, 58, 235-241). Protein (50 μg) from each sample was resolved by 12% SDS-polyacrylamide gel electrophoresis, transferred, and analyzed by Western blotting. Antibodies were purchased from the following vendors: anti-total AKT and protein A/G agarose beads were obtained from Santa Cruz Biotechnology (Santa Cruz, Calif., USA); anti-GAPDH and anti-α9-nAChR antibodies were from Abcam (Cambridge, UK); antiphospho AKT (Ser^473), anti-c-Jun, and anti-c-Fos were from Cell Signaling Technology (Beverly, Mass., USA). The secondary antibodies, alkaline phosphatase-coupled anti-mouse, and anti-rabbit IgG were purchased from Santa Cruz Biotechnology. The specific protein complexes were identified with the chromogenic substrates nitro blue tetrazolium, and 5-bromo-4-chloro-3-indolyl-phosphate from KPL (Gaithersburg, Md., USA). In each experiment, proteins were also probed with anti-GAPDH antibodies as a protein-loading control.

MCF-7 cells [2] = test: Soft agar cloning assay (colony formation) of MCF-7 cells; conditions: EGCG 10 μM, Nic 10 μM
Protocol: The base layer consisted of 0.9% low gelling point SeaPlaque agarose (Sigma, St. Louis, Mo., USA) in culture medium (Shih, Y. L., Liu, H. C., Chen, C. S., Hsu, C. H. et al., J. Agric. Food Chem. 2010, 58, 235-241). Soft agar, consisting of 0.4% SeaPlaque agarose in culture medium, was mixed with 1×10^4 MCF-7 cells and plated on top of the base layer in 60-mm diameter culture dishes. Soft agar cultures were maintained at 37° C. and counted for the appearance of colonies with a Leica DMI 4000B Microscope Imaging System (Leica Microsystems, Wetzlar, Germany).

p-AKT (Ser^473) = test: phosphorylated AKT by immunoblotting in MCF-7 cells; conditions: EGCG 10 μM 24 h pretreatment, then Nic 10 μM or E2 10 nM 24 h
Protocol: as §2

SMILES: O=C(O[C@@H]1Cc2c(O)cc(O)cc2O[C@@H]1c1cc(O)c(O)c(O)c1)c1cc(O)c(O)c(O)c1 [EGCG, (−)-epigallocatechin-3-gallate]
- α9-nAChR mRNA in Nic-treated cells (α9-nAChR mRNA; EGCG 1 μM with Nic 10 μM, RT-PCR): downregulated
- Nic- or E2-induced α9-nAChR mRNA upregulation (real-time PCR) (α9-nAChR mRNA; EGCG 10 μM, Nic 10 μM or E2 10 nM): completely attenuated
- Nic-induced cellular proliferation effects in (C) and (Sc) cells (MCF-7 cells [1]; EGCG 10 μM, 24 h pretreatment, then Nic 10 μM 24 h): reversed
- Nic-stimulated proliferation (MCF-7 cells [1]; MCF-7, EGCG 10-25 μM, 24 h pretreatment, dose-dependent): blocked
- cell proliferation in Nic-treated α9-nAChR (Si) cells compared with Sc cells (MCF-7 cells [1]; combined treatment with EGCG 10 μM and Nic 10 μM): profoundly inhibited
- Nic-induced AP-1 binding to the α9-nAChR promoter (AP-1): attenuated
- p53 binding to the α9-nAChR promoter (−125 to 0) (p53): not affected
- Nic- and E2-induced upregulation of α9-nAChR protein after inhibitor pretreatment (α9-nAChR protein; 24 h pretreatment (LY294002 25 μM or EGCG 10 μM), then Nic 10 μM or E2 10 nM 24 h): almost completely inhibited; also recorded: significantly inhibited
- α9-nAChR protein in Nic-treated cells (α9-nAChR protein; EGCG 1 μM with Nic 10 μM, 24 h): downregulated
- α9-nAChR protein expression induced by either Nic or E2 (α9-nAChR protein; Nic 10 μM or E2 10 nM in presence of EGCG 1-10 μM, 24 h): significantly inhibited
- colony formation in α9-nAChR (Si) cells compared with (Sc) cells (MCF-7 cells [2]): profoundly inhibited
- formation of transformed colonies compared with Nic-treated cells (MCF-7 cells [2]; MCF-7): significantly inhibits
- pAKT protein expression induced by either E2 or Nic (p-AKT (Ser^473)): significantly inhibited
